Experimental data taken from ChEMBL document CHEMBL4311981, “Synthesis, anticancer activity, and molecular modeling of 1,4-naphthoquinones that inhibit MKK7 and Cdc25” (Eur J Med Chem, 2019).
Active and inactive are the calls of the source. No cut-off for these calls is given here.

Key:
[1] = molecular target: T1, M-phase inducer phosphatase 2 (Homo sapiens, UniProt P30305)
T1 sequence (P30305 whole entry): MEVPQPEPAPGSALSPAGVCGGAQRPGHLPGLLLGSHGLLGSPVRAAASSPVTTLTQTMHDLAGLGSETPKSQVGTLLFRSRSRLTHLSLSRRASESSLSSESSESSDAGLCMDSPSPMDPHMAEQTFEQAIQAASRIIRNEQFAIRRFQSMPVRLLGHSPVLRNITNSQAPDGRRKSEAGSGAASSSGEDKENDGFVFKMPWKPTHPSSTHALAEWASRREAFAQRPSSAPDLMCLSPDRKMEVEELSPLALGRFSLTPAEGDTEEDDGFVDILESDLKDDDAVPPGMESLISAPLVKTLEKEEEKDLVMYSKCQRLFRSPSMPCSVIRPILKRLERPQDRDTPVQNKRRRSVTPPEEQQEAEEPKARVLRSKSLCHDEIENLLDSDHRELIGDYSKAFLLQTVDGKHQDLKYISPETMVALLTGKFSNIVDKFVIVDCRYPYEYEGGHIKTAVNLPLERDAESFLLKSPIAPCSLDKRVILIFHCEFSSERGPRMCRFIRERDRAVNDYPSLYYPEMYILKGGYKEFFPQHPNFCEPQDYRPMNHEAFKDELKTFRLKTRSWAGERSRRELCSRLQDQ
Description: Inhibition of recombinant Cdc25B (unknown origin) using OMFP as substrate measured every 30 sec for 10 mins by fluorometric assay

[2] = molecular target: T2, M-phase inducer phosphatase 1 (Homo sapiens, UniProt P30304)
T2 sequence (P30304 whole entry): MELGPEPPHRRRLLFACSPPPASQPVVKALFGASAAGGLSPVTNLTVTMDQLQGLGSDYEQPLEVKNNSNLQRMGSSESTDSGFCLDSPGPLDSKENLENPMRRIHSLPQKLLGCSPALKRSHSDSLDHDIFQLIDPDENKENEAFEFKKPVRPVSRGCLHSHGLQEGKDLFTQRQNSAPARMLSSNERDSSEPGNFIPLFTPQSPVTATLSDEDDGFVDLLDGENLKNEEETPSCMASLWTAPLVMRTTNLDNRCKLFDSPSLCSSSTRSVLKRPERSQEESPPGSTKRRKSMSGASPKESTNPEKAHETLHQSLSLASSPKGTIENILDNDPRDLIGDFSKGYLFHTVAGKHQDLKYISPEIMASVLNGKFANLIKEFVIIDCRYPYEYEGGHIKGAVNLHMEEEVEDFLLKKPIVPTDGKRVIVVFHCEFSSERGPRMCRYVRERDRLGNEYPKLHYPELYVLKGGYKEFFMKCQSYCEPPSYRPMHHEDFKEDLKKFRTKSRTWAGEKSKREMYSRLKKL
Description: Inhibition of recombinant Cdc25A (unknown origin) using OMFP as substrate measured every 30 sec for 10 mins by fluorometric assay

[3] = molecular target: T3, Dual specificity mitogen-activated protein kinase kinase 7 (Homo sapiens) (UniProt O14733); assay: Binding affinity to MKK7 (unknown origin) expressed in HEK293 cells assessed as dissociation constant at <30 uM by kinomescan method; assay type: cell-based
T3 sequence (whole entry): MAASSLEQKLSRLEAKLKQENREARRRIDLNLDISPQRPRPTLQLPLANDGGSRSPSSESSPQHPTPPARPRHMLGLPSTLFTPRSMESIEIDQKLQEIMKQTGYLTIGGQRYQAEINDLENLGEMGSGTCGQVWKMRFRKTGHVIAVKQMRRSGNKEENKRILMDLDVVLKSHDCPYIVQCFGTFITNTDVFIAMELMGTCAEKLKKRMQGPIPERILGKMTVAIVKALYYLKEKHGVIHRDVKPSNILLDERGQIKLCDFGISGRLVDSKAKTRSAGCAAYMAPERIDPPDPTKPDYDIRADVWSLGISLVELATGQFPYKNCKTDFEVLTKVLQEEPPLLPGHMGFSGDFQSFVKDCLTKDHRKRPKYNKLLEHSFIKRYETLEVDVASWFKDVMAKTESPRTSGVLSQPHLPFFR

[4] = molecular target: T4, Neutrophil elastase (Homo sapiens) (UniProt P08246); assay: Inhibition of recombinant HNE (unknown origin) at <50 uM using N-methylsuccinyl-Ala-Ala-Pro-Val-7-amino-4-methylcoumarin, as a substrate measured every 30 sec for 10 mins by fluorometric assay
T4 sequence (whole entry): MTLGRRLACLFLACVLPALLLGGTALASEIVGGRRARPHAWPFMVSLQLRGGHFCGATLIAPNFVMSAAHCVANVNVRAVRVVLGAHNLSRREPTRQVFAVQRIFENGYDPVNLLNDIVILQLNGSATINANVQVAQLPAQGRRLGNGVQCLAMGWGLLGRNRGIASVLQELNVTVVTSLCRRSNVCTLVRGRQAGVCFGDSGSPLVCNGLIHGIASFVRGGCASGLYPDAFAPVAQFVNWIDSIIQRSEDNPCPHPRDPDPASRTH

[5] = tested on: HL-60; assay: Cytotoxicity against human HL60 cells assessed as reduction in cell viability incubated for 24 hrs by CellTiter-Glo luminescent cell viability assay; assay type: functional, cell-based; details: for IC50: HL-60, 24 h
[6] = tested on: Jurkat; assay: cells; details: Homo sapiens, 24 h
Description: Cytotoxicity against human Jurkat cells assessed as reduction in cell viability incubated for 24 hrs by CellTiter-Glo luminescent cell viability assay

[7] = tested on: U-937; assay: Cytotoxicity against human U937 cells assessed as reduction in cell viability incubated for 24 hrs by CellTiter-Glo luminescent cell viability assay; assay type: functional, cell-based; details: U-937, 24 h
[8] = tested on: A549; assay: Cytotoxicity against human A549 cells assessed as reduction in cell viability incubated for 24 hrs by CellTiter-Glo luminescent cell viability assay; assay type: functional, cell-based; details: A549, 24 h
[9] = tested on: PBMC; assay: Cytotoxicity against human PBMC cells assessed as reduction in cell viability incubated for 24 hrs by CellTiter-Glo luminescent cell viability assay; assay type: cell-based
[10] = tested on: SW982; assay: Cytotoxicity against human SW982 cells assessed as reduction in cell viability incubated for 24 hrs by CellTiter-Glo luminescent cell viability assay; assay type: functional, cell-based; details: SW982, 24 h
[11] = tested on: LS174T; assay: Cytotoxicity against human LS174T cells assessed as reduction in cell viability incubated for 24 hrs by CellTiter-Glo luminescent cell viability assay; assay type: functional, cell-based
[12] = tested on: MCF7; assay: Cytotoxicity against human MCF7 cells assessed as reduction in cell viability incubated for 24 hrs by CellTiter-Glo luminescent cell viability assay; assay type: functional, cell-based; details: MCF7, 24 h
[13] = tested on: THP-1; assay: Cytotoxicity against human THP1 cells assessed as reduction in cell viability incubated for 24 hrs by CellTiter-Glo luminescent cell viability assay; assay type: functional, cell-based; details: THP-1, 24 h
[14] = tested on: MONO-MAC-6; assay: Cytotoxicity against human MONO-MAC-6 cells assessed as reduction in cell viability incubated for 24 hrs by CellTiter-Glo luminescent cell viability assay; assay type: functional, cell-based; details: MONO-MAC-6, 24 h

Row | Compound | IC50 [1] [µM] | IC50 [2] [µM] | inhibition [3] | inhibition [4] | IC50 [6] [µM] | IC50 [7] [µM] | IC50 [8] [µM] | IC50 [10] [µM] | IC50 [11] [µM] | IC50 [12] [µM] | Activity [3] | also measured
1 | O=C(O)CCCNC1=C(Cl)C(=O)c2ccccc2C1=O | 10.9 | 8.2 | inactive | inactive |  |  |  |  |  |  |  | 
2 | CC1=CC(=O)c2c(O)cccc2C1=O |  |  |  | inactive |  |  |  |  |  |  |  | 
3 | CC1=CC(=O)c2ccccc2C1=O [MENADIONE] | 3.9 | 6.9 |  | inactive | 5 | 6.3 | 25.1 | 9.3 | 26.6 | 9 | inactive | IC50 [5]: 5.6 µM; IC50 ([9]; read-out: IC50): 14.5 µM
4 | O=C1C(O)=C(CN(CCCl)CCCl)C(=O)c2ccccc21 |  | 15.4 |  |  |  |  |  |  |  |  |  | 
5 | O=C(O)c1ccc(NC2=C(Cl)C(=O)c3ccccc3C2=O)cc1 | 4.9 | 2.4 | inactive | inactive | 5.5 | 3.9 | 17.6 | 4.6 | 9.9 | 14.5 |  | IC50 [5]: 8.9 µM; IC50 ([9]; read-out: IC50): 13.1 µM; IC50 [13]: 5.6 µM; IC50 [14]: 6 µM
6 | COC1=CC(=O)c2ccccc2C1=O [2-Methoxy-1,4-naphthoquinone] | 46.8 | 2.3 |  | inactive | 16.1 | 13.9 | 16.4 | 29.8 | 33.7 | 6.1 | inactive | IC50 [5]: 7.1 µM; IC50 ([9]; read-out: IC50): 29.8 µM; IC50 [13]: 16.6 µM; IC50 [14]: 4.8 µM
7 | COC(=O)c1ccc(NC2=C(N3CCCCC3)C(=O)c3ccccc3C2=O)cc1 | 14.2 | 11.6 | inactive | inactive |  |  |  |  |  |  |  | 
8 | CSC1=C(SC)C(=O)c2ccccc2C1=O |  |  |  | inactive | 1.4 |  | 12.4 | 7.6 | 15.1 | 7.4 |  | IC50 [5]: 0.7 µM; IC50 [13]: 1.7 µM
9 | CC(C)=CC[C@@H](O)C1=CC(=O)c2c(O)ccc(O)c2C1=O [SHIKONIN] |  | 0.22 |  | inactive | 0.97 | 1.2 | 7.3 | 2.8 | 8.9 | 2.7 | inactive | Activity [5]: Dose-dependent effect; IC50 ([9]; read-out: IC50): 5 µM; IC50 [13]: 0.82 µM; IC50 [14]: 2.6 µM
10 | O=C(O)CCNC1=C(Cl)C(=O)c2ccccc2C1=O | 28.8 | 26.1 | inactive | inactive |  |  |  |  |  |  |  | 
11 | Nn1c(CCC(=O)O)nc2ccccc2c1=O |  |  |  |  |  |  |  |  |  |  | inactive | 
12 | Cn1c(SCCC(=O)O)nc2ccccc2c1=O |  |  |  |  |  |  |  |  |  |  | inactive | 
13 | CCN(CC)CCNC(=O)c1c(C)[nH]c(/C=C2\C(=O)Nc3ccc(F)cc32)c1C [SUNITINIB] |  |  |  |  |  | 13.7 |  | 41.2 |  |  |  | IC50 [9]: 46.3 µM
14 | O=C(O)CCCc1nc2ccccc2c(=O)[nH]1 |  |  |  |  |  |  |  |  |  |  | inactive | 
15 | O=C(O)CCNC(=O)Cn1cnc2ccccc2c1=O |  |  |  |  |  |  |  |  |  |  | inactive | 
16 | O=C(O)CCSc1nc(O)c2ccccc2n1 |  |  |  |  |  |  |  |  |  |  | inactive | 
17 | O=C(O)CCCCCNC1=C(Cl)C(=O)c2ccccc2C1=O | 23.7 | 36.4 | inactive | inactive |  |  |  |  |  |  |  | 
18 | COC(=O)c1ccc(NC2=C(Cl)C(=O)c3ccccc3C2=O)cc1 | 10.9 | 20.3 | inactive | inactive |  |  |  |  |  |  |  | 
19 | O=C(O)CSc1nc(O)c2ccccc2n1 |  |  |  |  |  |  |  |  |  |  | inactive | 
20 | CC1=C(SCCO)C(=O)c2ccccc2C1=O | 10.9 | 4.5 |  | inactive | 6.8 | 12.1 | 41.3 | 19.3 | 39.4 | 30.9 | inactive | IC50 [5]: 9.3 µM; IC50 ([9]; read-out: IC50): 13.3 µM; IC50 [13]: 3.9 µM; IC50 [14]: 6.3 µM
